Patent publication US10478419B2, “Use of daphnoretin in prevention of tissue or organ transplant rejection or graft-versus-host-disease” (MacKay Memorial Hospital, priority 2017, dated 2019)

How the values were obtained:
[1] = tested on: phosphorylated c-Jun N-terminal kinase (p-JNK); assay: Immunoblot analysis of phosphorylated JNK in DCs; assay type: cell-based, human; settings: FIG. 5 panels A and B
Procedure: (§1) Human peripheral blood mononuclear cells were collected from healthy donors and were isolated using Histopaque (Amersham Pharmacia Biotech, Piscataway, N.J., USA) for density gradient centrifugation. Erythrocytes were lysed by using 0.9% ammonium chloride incubated for 3 min at 37° C. Thereafter, CD14^+ monocytes were purified by gradient magnetic sorting method using miniMACS system with anti-CD14 microbeads (Miltenyi Biotec, Bergisch Bladbach, Germany). After incubation at 37° C. for 2 hr, nonadherent cells were removed and adherent cells were collected. The purity of isolated CD14^+ monocytes was over 90% by using flow cytometric analysis. Immature DCs were generated from CD14^+ monocytes by culture in RPMI 1640 medium supplemented with 10% fetal calf serum, 100 ng/mL GM-CSF (Schering-Plough, Munich, Germany), 50 ng/mL IL-4 (R&D Systems, Minneapolis, Minn., USA), and daphnoretin (0, 1.1, 3.3, 10 or 30 μM) every 3 days for 6 days in a humidified 5% CO2 incubator. To trigger maturation of DCs, immature DCs were incubated with lipopolysaccharide (LPS) (5 ng/mL) (Sigma, St. Louis, Mo., USA) and/or a combination of cytokines including 5 ng/mL TNF-α, 5 ng/mL IL-1β, 15 ng/mL IL-6 (R&D Systems, Minneapolis, Minn., USA), and 1 μg/mL prostaglandin E2 (PGE2) (Sigma-Aldrich, St. Louis, Mo., USA) for 24 hr. […]

[2] = tested on: human monocyte-derived dendritic cells (DCs); assay: Number of viable DCs, trypan blue dye exclusion test; assay type: cell-based; settings: daphnoretin 1.1, 3.3, 10 or 30 μM, FIG. 3
Procedure: as §1

protein kinase C (PKC) = settings: human hepatoma Hep3B cells; cited from earlier work
[3] = tested on: Ehrlich ascites tumor, cervical cancer and lung adenocarcinoma; settings: cited from earlier work
[4] = tested on: acute rejection of skin allografts; assay: Skin allograft transplantation model
Excerpt: Male C57BL/6(H-2^b) and BALB/6(H-2^d) mice aged 6-8 weeks were purchased from Animal Resource Center of National Science Council of Taiwan (Taipei, Taiwan) and maintained in a room with 12 hr light/dark cycles. Standard laboratory chow and water were available ad libitum. […] Briefly, a 2×1 cm full-thickness skin graft was harvested from the donor mouse and sutured to the graft bed of a recipient mouse. The skin graft rejection was defined as necrosis of more than 80% of the epidermal surface. Daphnoretin (0.5 or 1.0 mg/Kg) and rapamycin (3.0 mg/Kg) were administered intraperitoneally daily until rejection was observed. Body weight was recorded and the white blood cell count was estimated by an automatic counter.

[5] = tested on: CD4+CD45RA+ naive T cells; assay: Allogenic naive T cell proliferation stimulated by matured DCs (BrdU); assay type: cell-based, human; settings: mature DCs : CD4+CD45RA+ cells 1:10 or 1:30; FIG. 4
Excerpt: Nonadherent cells from culture of isolated mononuclear cells were used to purify naïve T cells. Naïve T cells were enriched with a CD4^+CD45RA^+T cell isolation kit (Miltenyi Biotec) using a MIniMACS system with negative selection technique. Monocyte-derived DCs were harvested and irradiated (3,000 cGy in a single fraction) with 6 MeV X-ray generated by linear accelerator (Clinac® 1800, Varian Associates Inc., CA) at a dose of 4.0 Gy/min. Full electron equilibrium was ensured for each fraction by a parallel plate PR-60C ionization chamber (Capintel Inc., Ramsey, N.J., USA). […] The cells were then collected and the incorporated BrdU was detected using flow cytometry to estimate T cell proliferation.

[6] = tested on: hepatitis B surface antigen; settings: human hepatoma Hep3B cells; cited from earlier work
[7] = tested on: human monocyte-derived dendritic cells (DCs); assay: Morphological observation of monocyte-derived DCs (differentiation); assay type: cell-based
Procedure: as §1

[8] = tested on: human monocyte-derived dendritic cells (DCs); assay: Flow cytometric analysis of surface markers on monocyte-derived DCs; assay type: cell-based
Procedure: Human peripheral blood mononuclear cells were collected from healthy donors and were isolated using Histopaque (Amersham Pharmacia Biotech, Piscataway, N.J., USA) for density gradient centrifugation. Erythrocytes were lysed by using 0.9% ammonium chloride incubated for 3 min at 37° C. Thereafter, CD14^+ monocytes were purified by gradient magnetic sorting method using miniMACS system with anti-CD14 microbeads (Miltenyi Biotec, Bergisch Bladbach, Germany). After incubation at 37° C. for 2 hr, nonadherent cells were removed and adherent cells were collected. The purity of isolated CD14^+ monocytes was over 90% by using flow cytometric analysis. Immature DCs were generated from CD14^+ monocytes by culture in RPMI 1640 medium supplemented with 10% fetal calf serum, 100 ng/mL GM-CSF (Schering-Plough, Munich, Germany), 50 ng/mL IL-4 (R&D Systems, Minneapolis, Minn., USA), and daphnoretin (0, 1.1, 3.3, 10 or 30 μM) every 3 days for 6 days in a humidified 5% CO2 incubator. To trigger maturation of DCs, immature DCs were incubated with lipopolysaccharide (LPS) (5 ng/mL) (Sigma, St. Louis, Mo., USA) and/or a combination of cytokines including 5 ng/mL TNF-α, 5 ng/mL IL-1β, 15 ng/mL IL-6 (R&D Systems, Minneapolis, Minn., USA), and 1 μg/mL prostaglandin E2 (PGE2) (Sigma-Aldrich, St. Louis, Mo., USA) for 24 hr. It has been shown that monocyte-conditioned medium containing a combination of pro-inflammatory cytokines (i.e., TNF-α, IL-1, IL-6, and PGE2) or LPS triggers efficient DCs maturation. Daphnoretin was purchased from Sigma (St. Louis, Mo., USA) and dissolved in PBS as a stock solution (0.5 mg/mL). Dual-color immunostain was performed using fluorescein isothiocyanate (FITC)- and phycoerythrin (PE)-conjugated monoclonal antibodies (mAbs). The mouse anti-human mAbs IgG1:FITC/mouse IgG1:PE, and appropriate isotype controls were purchased from Serotec (Oxford, UK) and used for characterization of DCs. The isotype controls used in our study included anti-CD11c and anti-CD14 (for IgG-FITC), anti-CD1a-PE, anti-CD80-PE, anti-CD83-PE, anti-HLA-DR-PE and anti-DC-SIGN-PE. Cells were incubated with saturating concentrations of PE-conjugated mAbs and primary CD11c mAbs followed by IgG-FITC at 4° C. for 30 min. After washing twice with PBS, 1×10^6 cells were applied to a FACS caliber flow cytometer (BD Biosciences, San Jose, Calif., USA). Data were collected and analyzed using CellQuest Software (BD Biosciences, San Jose, Calif., USA).

COc1ccc(C[C@H]2NC[C@H](O)[C@H]2OC(C)=O)cc1 [anisomycin, reference compound]
level of p-JNK in DCs treated with daphnoretin, effect of added JNK activator ([1]; co-incubated with daphnoretin): could reverse this decrease

COc1cc2cc(Oc3ccc4ccc(=O)oc4c3)c(=O)oc2cc1O [daphnoretin, 7-hydroxy-6-methoxy-3,7′-dicoumaryl ether]
cell viability (cell numbers of mature and immature DCs) [2]: reduced the cell numbers of both mature and immature DCs in dose-dependent manner | protein kinase C (PKC) activity and intracellular level (protein kinase C (PKC)): inactivating protein kinase C (PKC) | anti-cancer activity [3]: possess anti-cancer activity | level of p-JNK in DCs ([1]; DCs treated with daphnoretin): decrease | fraction of the survived skin graft ([4]; daphnoretin 1.0 mg/Kg/day intraperitoneally, FIG. 6 panel A): even higher than that treated of the rapamycin-treated mouse | body weight of the recipient mouse ([4]; daphnoretin dose employed, vs control, FIG. 6 panel B): did not vary significantly | white blood cell count of the recipient mouse ([4]; daphnoretin dose employed, vs control, FIG. 6 panel C): did not vary significantly | proliferation of DCs stimulated T cells [5]: suppressed | expression of hepatitis B surface antigen [6]: suppressing the expression of hepatitis B surface antigen | differentiation process of DCs (morphology, formation of dendrites) ([7]; daphnoretin 1.1, 3.3, 10 or 30 μM, FIG. 1): suppressed | morphology of DCs ([7]; treated with daphnoretin and anisomycin, FIG. 5 panel C): remained rounded and without the formation of any dendrites | expression of CD1a ([8]; FIG. 2 panel A): suppressed | expression of macrophage marker CD14 ([8]; FIG. 2 panel B): unaffected | expression of CD40 ([8]; FIG. 2 panel C): suppressed | expression of CD83 ([8]; FIG. 2 panel D): suppressed | expression of DC-SIGN ([8]; FIG. 2 panel E): suppressed
